“And” between values parts separate entries of the source, which are not always exact repeats. Identical values can stand only once. Inconclusive results and toxic doses are left out. The calls were made as follows: active = survival T/C of 150% or more; inactive = T/C below 125% in these data.
Test system: P388 leukemia ip, CD2F1 mice, survival T/C
Test: NCI In Vivo Anticancer Drug Screen. Data for tumor model P388 Leukemia (intraperitoneal) in CD2F1 (CDF1) mice
Conditions: endpoint: median survival time, higher = longer survival
Procedure, shortened: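 Mice carrying the transplanted tumor received test compound or vehicle. Survival was recorded in each group, and the value is the treated-group measurement divided by that of the vehicle-treated control group.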

[1] = dose: 6.25 mg/kg/injection, schedule: Q01DX009 (ip), vehicle: saline with Tween-80
[2] = dose: 12.5 mg/kg/injection, schedule: Q01DX009 (ip), vehicle: saline with Tween-80
[3] = dose: 25.0 mg/kg/injection, schedule: Q01DX009 (ip), vehicle: saline with Tween-80
[4] = dose: 60.0 mg/kg/injection, schedule: Q01DX005 (ip), vehicle: saline with Tween-80
[5] = dose: 120.0 mg/kg/injection, schedule: Q01DX005 (ip), vehicle: saline with Tween-80
[6] = dose: 50.0 mg/kg/injection, schedule: Q01DX005 (ip), vehicle: saline with Tween-80
[7] = dose: 100.0 mg/kg/injection, schedule: Q01DX005 (ip), vehicle: saline with Tween-80
[8] = dose: 200.0 mg/kg/injection, schedule: Q01DX005 (ip), vehicle: saline with Tween-80
[9] = dose: 50.0 mg/kg/injection, schedule: Q01DX009 (ip), vehicle: saline with Tween-80
[10] = dose: 50.0 mg/kg/injection, schedule: Q01DX009 (ip), vehicle: Klucel (hydroxypropylcellulose) (HPC)
[11] = dose: 100.0 mg/kg/injection, schedule: Q01DX009 (ip), vehicle: Klucel (hydroxypropylcellulose) (HPC)
[12] = dose: 200.0 mg/kg/injection, schedule: Q01DX009 (ip), vehicle: Klucel (hydroxypropylcellulose) (HPC)
[13] = dose: 100.0 mg/kg/injection, schedule: Q04DX003 (ip), vehicle: saline with Tween-80
[14] = dose: 200.0 mg/kg/injection, schedule: Q04DX003 (ip), vehicle: saline with Tween-80

Measured: T/C

CC1(C)CCC2(C(=O)O)CCC3(C)C(=CCC4C5(C)CCC(OC6OC(CO)C(O)C(OC7OC(CO)C(O)C(O)C7O)C6OC6OC(CO)C(O)C(O)C6O)C(C)(C)C5CCC43C)C2C1 (stereo unspecified)
inactive: dose: 3.75 mg/kg/injection, schedule: Q01DX005 (ip), vehicle: Klucel (hydroxypropylcellulose) (HPC) 102 % of control | dose: 7.5 mg/kg/injection, schedule: Q01DX005 (ip), vehicle: Klucel (hydroxypropylcellulose) (HPC) 100 % of control | dose: 15.0 mg/kg/injection, schedule: Q01DX005 (ip), vehicle: Klucel (hydroxypropylcellulose) (HPC) 88 % of control | dose: 30.0 mg/kg/injection, schedule: Q01DX005 (ip), vehicle: Klucel (hydroxypropylcellulose) (HPC) 100 % of control

O=c1c2ccccc2[nH]c2c([N+](=O)[O-])ccc(Oc3ccc(CCc4ccc(Oc5ccc([N+](=O)[O-])c6[nH]c7ccccc7c(=O)c56)cc4)cc3)c12
inactive: [1] 101 % of control | [2] 100 % of control | [3] 100 % of control | dose: 200.0 mg/kg/injection, schedule: Q01DX009 (ip), vehicle: saline with Tween-80 91 % of control

CCN(CC)CCOc1ccc(C(=O)CC(=O)c2c(-c3ccccc3)n(C)c3ccccc23)cc1
inactive: dose: 50.0 mg/kg/injection, schedule: Q01DX001 (ip), vehicle: saline 101 % of control | dose: 100.0 mg/kg/injection, schedule: Q01DX001 (ip), vehicle: saline 94 % of control | dose: 200.0 mg/kg/injection, schedule: Q01DX001 (ip), vehicle: saline 91 % of control

CCOC(=O)c1cc(/C=C/c2ccc(Cl)cc2)on1
inactive: [4] 91 % of control | [5] 90 % of control

Cc1ccc(CCNC(=O)c2c3nc4c(C(=O)NCCc5ccc(C)cc5)cccc4oc-3cc(=O)c2N)cc1
inactive: [6] 93 % of control | [7] 87 % of control | [8] 100 % of control

COc1ccc(C(C)(C)CC(C)(C)C)cc1
inactive: [2] 101 % of control | [3] 104 % of control | [9] 104 % of control | dose: 100.0 mg/kg/injection, schedule: Q01DX009 (ip), vehicle: saline with Tween-80 109 % of control

CCOC(=O)CNC(=O)Oc1ccc(Cl)cn1
inactive: [10] 102 % of control | [11] 97 % of control | [12] 102 % of control

C=CCC(N)C(=O)O (stereo unspecified)
inactive: dose: 50.0 mg/kg/injection, schedule: Q01DX005 (ip), vehicle: saline 103 % of control | dose: 100.0 mg/kg/injection, schedule: Q01DX005 (ip), vehicle: saline 97 % of control

CCCCCCCCCCCC(=O)NO
inactive: dose: 3.13 mg/kg/injection, schedule: Q01DX009 (ip), vehicle: saline with Tween-80 94 % of control | [1] 99 % of control | [2] 101 % of control | [3] 95 % of control

CC(C)c1ccc([C](C)(CC(C)(C)C)[Sn]([CH3])([CH3])[CH3])cc1 (stereo unspecified)
inactive: dose: 3.13 mg/kg/injection, schedule: Q04DX003 (ip), vehicle: Klucel (hydroxypropylcellulose) (HPC) 105 % of control | dose: 6.25 mg/kg/injection, schedule: Q04DX003 (ip), vehicle: Klucel (hydroxypropylcellulose) (HPC) 92 % of control | dose: 12.5 mg/kg/injection, schedule: Q04DX003 (ip), vehicle: Klucel (hydroxypropylcellulose) (HPC) 91 % of control

C=C(C)c1cc2cc(C(C)=O)ccc2o1
inactive: dose: 2.25 mg/kg/injection, schedule: Q01DX009 (ip), vehicle: Klucel (hydroxypropylcellulose) (HPC) 108 % of control | dose: 4.5 mg/kg/injection, schedule: Q01DX009 (ip), vehicle: Klucel (hydroxypropylcellulose) (HPC) 115 % of control | dose: 9.0 mg/kg/injection, schedule: Q01DX009 (ip), vehicle: Klucel (hydroxypropylcellulose) (HPC) 97 % of control | dose: 18.0 mg/kg/injection, schedule: Q01DX009 (ip), vehicle: Klucel (hydroxypropylcellulose) (HPC) 115 % of control | dose: 36.0 mg/kg/injection, schedule: Q01DX009 (ip), vehicle: Klucel (hydroxypropylcellulose) (HPC) 113 % of control

O=[N+]([O-])CC1CCCCC1O (stereo unspecified)
inactive: [1] 100 % of control | [2] 100 % of control | [3] 90 % of control

C/C(=N\Nc1nncn2cccc12)c1ccccc1
inactive: dose: 100.0 mg/kg/injection, schedule: Q04DX002 (ip), vehicle: saline with Tween-80 113 % of control | dose: 200.0 mg/kg/injection, schedule: Q04DX002 (ip), vehicle: saline with Tween-80 120 % of control | dose: 400.0 mg/kg/injection, schedule: Q04DX002 (ip), vehicle: saline with Tween-80 124 % of control

Clc1ccc(-c2ncnc3c2Cc2ccccc2-3)cc1
inactive: [13] 104 % of control | [14] 100 % of control | dose: 400.0 mg/kg/injection, schedule: Q04DX003 (ip), vehicle: saline with Tween-80 104 % of control

NC(=S)NC1OC(COC(=O)c2ccccc2)C(OC(=O)c2ccccc2)C1OC(=O)c1ccccc1 (stereo unspecified)
inactive: dose: 25.0 mg/kg/injection, schedule: Q04DX003 (ip), vehicle: saline with Tween-80 98 % of control | dose: 50.0 mg/kg/injection, schedule: Q04DX003 (ip), vehicle: saline with Tween-80 107 % of control | [13] 100 % of control | [14] 106 % of control

CC(=O)OC1CCC2C3CCC4=CC(=O)C(C(O)(C(F)(F)F)C(F)(F)F)CC4(C)C3CCC12C (stereo unspecified)
inactive: dose: 100.0 mg/kg/injection, schedule: Q01DX001 (sc), vehicle: steriod suspending solution 100 % of control | dose: 200.0 mg/kg/injection, schedule: Q01DX001 (sc), vehicle: steriod suspending solution 100 % of control | dose: 400.0 mg/kg/injection, schedule: Q01DX001 (sc), vehicle: steriod suspending solution 104 % of control

CCC(C)C1NC(=O)C(NC(=O)c2c3[nH]c4c(C(=O)NC5C(=O)NC(C(C)CC)C(=O)N6CCCC6C(=O)N(C)CC(=O)N(C)C(C(C)C)C(=O)OC5C)ccc(C)c4oc-3c(C)c(=O)c2=O)C(C)OC(=O)C(C(C)C)N(C)C(=O)CN(C)C(=O)C2CCCN2C1=O (stereo unspecified)
inactive: dose: 0.05 mg/kg/injection, schedule: Q01DX009 (ip), vehicle: water 99 % of control | dose: 0.1 mg/kg/injection, schedule: Q01DX009 (ip), vehicle: water 104 % of control | dose: 0.2 mg/kg/injection, schedule: Q01DX009 (ip), vehicle: water 95 % of control | dose: 0.4 mg/kg/injection, schedule: Q01DX009 (ip), vehicle: water 100 % of control and 104 % of control | dose: 0.8 mg/kg/injection, schedule: Q01DX009 (ip), vehicle: water 101 % of control and 96 % of control | dose: 1.6 mg/kg/injection, schedule: Q01DX009 (ip), vehicle: water 102 % of control and 110 % of control | dose: 3.2 mg/kg/injection, schedule: Q01DX009 (ip), vehicle: water 110 % of control | dose: 6.4 mg/kg/injection, schedule: Q01DX009 (ip), vehicle: water 123 % of control

NC(=O)C(Cl)Cn1ccnc1 (stereo unspecified)
inactive: dose: 50.0 mg/kg/injection, schedule: Q04DX003 (ip), vehicle: saline 103 % of control | dose: 100.0 mg/kg/injection, schedule: Q04DX003 (ip), vehicle: saline 100 % of control | dose: 200.0 mg/kg/injection, schedule: Q04DX003 (ip), vehicle: saline 110 % of control

O=C(O)C1C2OC3C(OC(=O)C31)C2Br (stereo unspecified)
inactive: [6] 100 % of control | [7] 94 % of control | [8] 103 % of control

O=C(O)CSc1nc(-c2nc3ccccc3s2)cn1-c1ccc(F)cc1
inactive: [10] 106 % of control | [11] 106 % of control | [12] 100 % of control

CCN(CC)CCCN(c1ccccc1)C1Cc2ccccc2C1
inactive: dose: 15.0 mg/kg/injection, schedule: Q01DX009 (ip), vehicle: saline 95 % of control | dose: 30.0 mg/kg/injection, schedule: Q01DX009 (ip), vehicle: saline 87 % of control | dose: 60.0 mg/kg/injection, schedule: Q01DX009 (ip), vehicle: saline 101 % of control

CCC1CN2CCc3cc(OC)c(OC)cc3C2CC1C#N (stereo unspecified)
inactive: [9] 93 % of control

N#Cc1c(N)nc(-c2ccccc2)nc1Nc1ccccc1
inactive: [4] 90 % of control | [5] 104 % of control | dose: 240.0 mg/kg/injection, schedule: Q01DX005 (ip), vehicle: saline with Tween-80 99 % of control

CC(O)C(NC(=O)C(Cc1ccc(O)cc1)NC(=O)C(CCCCN)N(C(=O)OCc1ccccc1)C(=O)OCc1ccccc1)C(=O)OCc1ccccc1 (stereo unspecified)
inactive: [6] 94 % of control | [7] 92 % of control | [8] 93 % of control

O=C(Nc1nc2ccc(Cl)cc2[nH]1)c1ccccc1O
inactive: [6] 94 % of control | [7] 98 % of control | [8] 101 % of control

O=C1C=CC(=O)N1c1ccc([N+](=O)[O-])cc1
inactive: [2] 101 % of control | [3] 101 % of control | [9] 99 % of control
